Tested on: TGN-resident K^+ channels
Details: UT HEK 293T cells; TEA 10 mM, 10 min; resting ~102 mM
Protocol: EE and TGN pH and [K^+] measurements were carried out using pHlicKer^EE/TGN in HEK 293T cells transfected with hMSR1 and scFv-furin respectively. For EEs, HEK 293T cells were pulsed with 250 nM pHlicKer^EE for 10 min and chased for 10 min. For TGN, HEK 293T cells were pulsed with 250 nM pHlicKer^TGN for 90 min and chased for 90 min. Cells were washed with 1×PBS three times and then imaged. For recycling endosomes, HEK 293T cells were pulsed with 250 nM pHlicKer^RE for 15 min and chased for 30 min. Cells were washed with 1×PBS three times and then imaged using a widefield microscope.
Calculating pH-corrected [K^+] in early endosomes, trans-Golgi network, and recycling endosomes. To correct for pH and obtain K^+ values, the Kd of pHlicKer in single endosomes was calculated based on the Kd calibration plot versus pH. The pH of the organelle was measured from the D/A values calibrated across pH 5.5-7.0. Donor (D) and acceptor (A) images were background subtracted by drawing a region of interest outside the cells. The D image was duplicated, and a threshold was set to create a binary mask. Background-subtracted D and A images were then multiplied with the binary mask to get processed D and A images.

CC[N+](CC)(CC)CC.[Cl-] [TEA, tetraethyl ammonium chloride]
[K+]TGN: ~73 mM

From US20240385200A1, “COMPOSITIONS AND METHODS OF DETERMINING PH AND POTASSIUM CONCENTRATION IN SAMPLES” (The University of Chicago, priority 2023, published 2024)
